Patent US9963455B2, “Pyrazolo[1,5-a]pyrimidines as antiviral compounds” (Curovir AB, priority 2014, dated 2018)

Columns and labels:
[1] = tested on: coxsackie B virus strain 4; test: CPE inhibition in mammalian cell culture, Cox-B4; type: cell-based; conditions: read-out: antiviral effect, B4
polio virus strain 1 = test: microbe, parasite or virus in culture; type: cell-based; conditions: read-out: antiviral effect, Polio 1
Porcine Tescho virus = test: microbe, parasite or virus in culture; type: cell-based; set-up: dose or concentration left out as unconfirmed; conditions: Conc.; read-out: antiviral effect, PTV
Ljungan virus strain 012 = test: CPE inhibition in mammalian cell culture, LV012; type: cell-based; conditions: Parechovirus B; Conc. 10 µM; read-out: antiviral effect, LV012
[2] = tested on: encephalomyocarditis virus; test: CPE inhibition in mammalian cell culture, EMCV; type: cell-based; set-up: inhibition: dose or concentration left out as unconfirmed; conditions: Cardiovirus A; Conc.; read-out: antiviral effect, EMCV
Ljungan virus strain 145 = test: CPE inhibition in mammalian cell culture, LV145; type: cell-based; set-up: inhibition: dose or concentration left out as unconfirmed; conditions: Parechovirus B; Conc.; read-out: antiviral effect, LV145
[3] = tested on: coxsackie B virus strain 1; test: CPE inhibition in mammalian cell culture, Cox-B1; type: cell-based; conditions: read-out: antiviral effect, B1
Enterovirus strain 71 = test: CPE inhibition in mammalian cell culture, EV71; type: cell-based; set-up: inhibition: dose or concentration left out as unconfirmed; conditions: for inhibition: Conc., read-out: antiviral effect, EV71
[4] = tested on: Human parechovirus strain 1; test: CPE inhibition in mammalian cell culture, HPeV-1; type: cell-based; conditions: Parechovirus A; Conc. 10 µM; read-out: antiviral effect, HPeV-1
[5] = tested on: coxsackie B virus strain 2; test: CPE inhibition in mammalian cell culture, Cox-B2; type: cell-based; conditions: read-out: antiviral effect, B2
Enterovirus strain 30 = test: CPE inhibition in mammalian cell culture, EV30; type: cell-based; conditions: Conc. 10 µM, read-out: antiviral effect, EV30
[6] = tested on: coxsackie B virus strain 5; test: CPE inhibition in mammalian cell culture, Cox-B5; type: cell-based; conditions: read-out: antiviral effect, B5
[7] = tested on: coxsackie B virus strain 3; test: CPE inhibition in mammalian cell culture, Cox-B3; type: cell-based; conditions: read-out: antiviral effect, B3
[8] = female Sprague Dawley rats, single dose
[9] = Sprague Dawley rats, 250 and 750 mg/kg body weight/day for 7 days
[10] = tested on: Coxsackie B3 virus, Nancy strain; test: Anti-viral efficacy against Coxsackie virus in a neutropenic mouse model; type: in vivo, Male BALB/c mice; conditions: neutropenic BALB/c mice, Coxsackie B3 i.p., 200 mg/kg once daily per orally from day 1 or day 3
Description: The FIGURE is a diagram showing the number of surviving animals as a function of the number of days after infections with Coxsackie B3 virus, in mice treated with the compound of Ex. 9, 200 mg/kg once daily per orally starting on day 1 (group 1) or on day 3 (group 2), and in mice treated with vehicle only (0.4% Tween 80, 2% glycerol and 15% β-hydroxypropyl cyclodextrin).
Evaluation of Anti-Viral Efficacy Against Coxsackie Virus in a Neutropenic Mouse Model Test System Male BALB/c mice, weighing 22-26 grams were used with 4 animals/group. Neutropenic induction: Cyclophosphamide Challenge organism: Coxsackie (human origin) virus CVB3 Route of infection: Intraperitoneal Route of administration: per oral End point: Cumulative survival
All experimental procedures involving animals were performed according to protocols approved by the Institutional Animal Ethics Committee of Anthem Biosciences. The mice, male BALB/c mice were housed 4 animals per cage and allowed access to feed and water ad libitum under controlled conditions. Mice were acclimatized for 7 days prior to the study. The animals were observed daily for general health during this period. […]
The animals were observed daily during the study period for signs of mortality, morbidity (paralysis) and signs of acute toxicity. Abnormal clinical signs were recorded if observed.

Theiler = test: CPE inhibition in mammalian cell culture, Theiler; type: cell-based; conditions: Conc. 10 μM

| SMILES | inhibition at 10000 µM [1] [%] | inhibition at 10000 µM (polio virus strain 1) [%] | inhibition (Porcine Tescho virus) [%] | inhibition at 10 µM (Ljungan virus strain 012) [%] | inhibition [2] [%] | inhibition (Ljungan virus strain 145) [%] | inhibition at 10000 µM [3] [%] | inhibition (Enterovirus strain 71) [%] | inhibition at 10 µM [4] [%] | inhibition at 10000 µM [5] [%] | inhibition at 10 µM (Enterovirus strain 30) [%] | inhibition at 10000 µM [6] [%] | also measured |
| --- | --- | --- | --- | --- | --- | --- | --- | --- | --- | --- | --- | --- | --- |
| CC(C)c1cc(NCc2ccccc2)n2ncc(-c3ccccc3)c2n1 [Ex. 4, N-benzyl-5-isopropyl-3-phenyl-pyrazolo[1,5-a]pyrimidin-7-amine] | 53 | 17 | 87 | 28 | 81 | 61 | 36 | 69 | 7 | 0 | 0 | 0 | inhibition at 2.5 µM (Enterovirus strain 71; EV71, Conc. 2.5 μM): 46%; inhibition at 10000 µM [7]: 0% |
| COc1ccc(-c2c(C)nn3c(NCc4ccc(F)cc4)cc(C)nc23)cc1OC [Ex. 9, 3-(3,4-dimethoxyphenyl)-N-[(4-fluorophenyl)methyl]-2,5-dimethyl-pyrazolo[1,5-a]pyrimidin-7-amine] | 48 | 91 | 23 | 18 | 14 | 59 | 53 | 16 | 19 | 76 | 35 | 73 | adverse clinical signs or mortality (BALB/C mice, 200 and 400 mg/kg body weight/day for 7 days): did not reveal any adverse clinical signs or mortality; No Observed Adverse Effect Level (NOAEL) (mouse, in vivo, po): 400 mg/kg body weight/day; maximum tolerable dose [8]: > 2000 mg/kg body weight; inhibition at 0.25 µM (Enterovirus strain 71; EV71, Conc. 0.25 μM): 93%; adverse clinical signs and mortality [9]: adverse clinical signs in both sexes at 750 mg/kg and mortality in one female at 750 mg/kg; Cumulative survival [10]: has an antiviral effect in vivo and can extend the life of the animals |
| Cc1cc(NCc2ccc(F)cc2)n2nc(C)c(-c3ccc(C(F)(F)F)cc3)c2n1 [Ex. 104, N-[(4-fluorophenyl)methyl]-2,5-dimethyl-3-[4-(trifluoromethyl)phenyl]pyrazolo[1,5-a]pyrimidin-7-amine] |  |  |  |  |  |  |  |  |  |  |  |  | inhibition at 10 µM (Theiler): 59% |
